According to patent US8088806B2 (Achillion Pharmaceuticals, Inc., priority 2005, dated 2012):
Where two headings read alike, the source gives them in different places.

System: HCV replicon
Test: Replicon based assay of HCV replication inhibition (NPT ELISA)
Assay type: cell-based, Hepatitis C virus
Conditions: replicon based assay of HCV replication inhibition, Table II, read-out: Activity
Outline: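 NPT (neomycin phosphotransferase) content, proportional to replicon replication, quantified by capture ELISA on day four. Before that, replicon-bearing Huh-7 cells in G418-free screening medium were exposed three days at 37° C to compound, typically six doses from 10 to 0.03 micromolar, with equal DMSO across wells.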

SMILES	EC50 (Hepatitis C virus) [µM]	EC50 [µM]
CCCCCCCCOc1ccc(Nc2nc(-c3ccc(O)c(C(N)=O)c3)cs2)cc1 [compound 449, 5-(2-(4-(octyloxy)phenylamino)thia-zol-4-yl)-2-hydroxybenzamide]	< 1	–
CCCCCOc1ccc(Nc2nc(-c3ccc(N4CCCC4)nc3)cs2)cc1C(F)(F)F [compound 450, N-(3-(trifluoromethyl)-4-(pentyloxy)phenyl)-4-(6-(pyrrolidin-1-yl)pyridin-3-yl)thiazol-2-amine]	< 1	–
CCCCCCCc1ccc(C(=O)Nc2nc(-c3ccc(Cl)cc3)cs2)cc1 [compound 451, N-(4-(4-chlorophenyl)thiazol-2-yl)-4-heptylbenzamide]	< 1	–
CCCCCCOc1ccc(Nc2nc(-c3ccc(F)cc3)cs2)cc1 [compound 452, 4-(4-fluorophenyl)-N-(4-(hexyloxy)phenyl)thiazol-2-amine]	< 1	–
Cc1ccc(-c2csc(Nc3ccc(OC4CCCC4)c(C(F)(F)F)c3)n2)cn1 [compound 453, N-(4-(cyclopentyloxy)-3-(trifluoromethyl)phenyl)-4-(6-methylpyridin-3-yl)thiazol-2-amine]	< 1	–
CCCCCN(C)c1ccc(Nc2nc(-c3ccc(C)nc3)cs2)cc1C(F)(F)F [compound 454, 2-(trifluoromethyl)-N^1-methyl-N^4-(4-(6-methylpyridin-3-yl)thiazol-2-yl)-N^1-pentylbenzene-1,4-diamine]	< 1	–
CCCCCCOc1ccc(Nc2nc(-c3ccc(C)nc3)cs2)cc1 [compound 455, N-(4-(hexyloxy)phenyl)-4-(6-methylpyridin-3-yl)thiazol-2-amine]	< 1	–
CCCCCCCCOc1ccc(Nc2nc(-c3ccc(C(=O)N(C)C)nc3)cs2)cc1 [compound 456, 5-(2-(4-(octyloxy)phenylamino)thia-zol-4-yl)-N,N-dimethylpyridine-2-carboxamide]	1 to 10	–
CCCCCCCOc1ccc(Nc2nc(-c3ccc(C(=O)N(C)C)nc3)cs2)cc1 [compound 457, 5-(2-(4-(heptyloxy)phenylamino)thia-zol-4-yl)-N,N-dimethylpyridine-2-carboxamide]	1 to 10	–
CCCCCCCCOc1ccc(Nc2nc(-c3ccc(O)cc3)cs2)cc1 [compound 458, 4-(2-(4-(octyloxy)phenylamino)thia-zol-4-yl)phenol]	< 1	–
CCCCCOc1ccc(Nc2nc(-c3ccc(Br)nc3)cs2)cc1C(F)(F)F [compound 459, 4-(6-bromopyridin-3-yl)-N-(3-(trifluoromethyl)-4-(pentyloxy)phenyl)thiazol-2-amine]	< 1	–
CCCCCOc1ccc(Nc2nc(-c3ccc(Cl)nc3)cs2)cc1C(F)(F)F [compound 460, 4-(6-chloropyridin-3-yl)-N-(3-(trifluoromethyl)-4-(pentyloxy)phenyl)thiazol-2-amine]	< 1	–
CCCCCCCCOc1ccc(Nc2nc(-c3ccc(OCC(=O)OCC)cc3)cs2)cc1 [compound 461, ethyl 2-(4-(2-(4-(octyloxy)phenylamino)thia-zol-4-yl)phenoxy)acetate]	< 1	–
CCCCCCCCOc1ccc(Nc2nc(-c3ccc(OCC(=O)O)cc3)cs2)cc1 [compound 462, 2-(4-(2-(4-(octyloxy)phenylamino)thia-zol-4-yl)phenoxy)acetic acid]	< 1	–
CCCCCCCCOc1ccc(Nc2nc(-c3ccc(NC)nc3)cs2)cc1 [compound 463, 5-(2-(4-(octyloxy)phenylamino)thia-zol-4-yl)-N-meethylpyridin-2-amine]	< 1	–
CCCCCCCCOc1ccc(Nc2nc(O)cs2)cc1 [compound 464, 2-(4-(octyloxy)phenylamino)thia-zol-4-ol]	1 to 10	–
CC(=O)OCCCCCCN(C)c1ccc(Nc2nc(-c3cccnc3)cs2)cc1C(F)(F)F [compound 465]	1 to 10	–
CC(=O)OCCCCCCN(C)c1ccc(Nc2nc(-c3ccc(C)nc3)cs2)cc1C(F)(F)F [compound 466]	1 to 10	–
CC(=O)OCCCCCCN(C)c1ccc(Nc2nc(-c3ccc(F)cc3)cs2)cc1C(F)(F)F [compound 467]	> 10	–
CCCCCCCCOc1ccc(Nc2nc(-c3ccc(C(=O)N(C)C)nc3)cs2)cn1 [compound 468, 5-(2-(6-(octyloxy)pyridin-3-ylamino)thiazol-4-yl)-N,N-dimethylpyridine-2-carboxamide]	1 to 10	–
CCCCCCCCOc1ccc(Nc2nc(-c3cccnc3)cs2)cn1 [compound 469, 6-(octyloxy)-N-0(4-(pyridin-3-yl)thiazol-2-yl)pyridin-3-amine]	1 to 10	–
CN(CCCCCCO)c1ccc(Nc2nc(-c3ccc(F)cc3)cs2)cc1C(F)(F)F [compound 470, 6-(N-(4-(4-(4-fluorophenyl)thiazol-2-ylamino)-2-(trifluoromethyl)phenyl)-N-methylamino)hexan-1-ol]	1 to 10	–
CCCCCCCCOc1ccc(Nc2nc(-c3ccc(C(=O)N(C)C)nc3)cs2)cn1 [compound 471, 5-(2-(6-(octyloxy)pyridin-3-ylamino)thiazol-4-yl)-N,N-dimethylpyridine-2-carboxamide]	–	< 1

SMILES	EC50 (Hepatitis C virus) [µM]	EC50 [µM]
CCCCCCCCOc1ccc(Nc2nc(-c3cccnc3)cs2)cn1 [compound 472, 6-(octyloxy)-N-(4-(pyridin-3-yl)thiazol-2-yl)pyridin-3-amine]	–	< 1
CCCCCCCCOc1ccc(Nc2nc(-c3ccc(C)nc3)cs2)cn1 [compound 473, N-(4-(6-methylpyridin-3-yl)thiazol-2-yl)-6-(octyloxy)pyridin-3-amine]	< 1	–
CCCCCCCCOc1ccc(Nc2nc(-c3ccc(F)c(F)c3)cs2)cn1 [compound 474, N-(4-(3,4-difluorophenyl)thiazol-2-yl)-6-(octyloxy)pyridin-3-amine]	< 1	–
CCCCCCCCOc1ccc(Nc2nc(-c3ccc(F)cc3)cs2)cn1 [compound 475, N-(4-(4-fluorophenyl)thiazol-2-yl)-6-(octyloxy)pyridin-3-amine]	< 1	–
CCCCCCCCOc1ccc(Nc2nc(-c3cccnc3)cs2)cc1C(F)(F)F [compound 476, N-(3-(trifluoromeethyl)-4-(octyloxy)phenyl)-4-(pyridin-3-yl)thiazol-2-amine]	< 1	–
CCCCCCCCN(C)c1ccc(Nc2nc(-c3cccnc3)cs2)cc1C(F)(F)F [compound 477, 2-(trifluoromethyl)-N^1-methyl-N^1-octyl-N^4-(4-(pyridin-3-yl)thiazol-2-yl)benzene-1,4-diamine]	< 1	–
O=C(Nc1ccc(OCc2ccccc2)cc1)Nc1nc(-c2ccc(Cl)cc2)cs1 [compound 478, 1-(4-(benzyloxy)phenyl)-3-(4-(4-chlorophenyl)thiazol-2-yl)urea]	1 to 10	–
CCCCCCCCOc1ccc(Nc2nc(Cl)cs2)cc1 [compound 479, 4-chloro-N-(4-(octyloxy)phenyl)thiazol-2-amine]	< 1	–
CC/C=C\CCCCOc1ccc(Nc2nc(-c3cccnc3)cs2)cc1C(F)(F)F [compound 480, N-(4-((Z)-oct-5-enyloxy)-3-(trifluoromethyl)phenyl)-4-(pyridin-3-yl)thiazol-2-amine]	< 1	–
CC/C=C\CCCCOc1ccc(Nc2nc(-c3ccc(C)nc3)cs2)cc1C(F)(F)F [compound 481, N-(4-((Z)-oct-5-enyloxy)-3-(trifluoromethyl)phenyl)-4-(6-methylpyridin-3-yl)thiazol-2-amine]	< 1	–
CC/C=C\CCCCOc1ccc(Nc2nc(-c3ccc(F)cc3)cs2)cc1C(F)(F)F [compound 482, N-(4-((Z)-oct-5-enyloxy)-3-(trifluoromethyl)phenyl)-4-(4-fluorophenyl)thiazol-2-amine]	< 1	–
CCCCCCCc1ccc(Nc2nc(-c3cccnc3)cs2)cc1 [compound 483, N-(4-heptylphenyl)-4-(pyridin-3-yl)thiazol-2-amine]	< 1	–
CCCCCOc1ccc(Nc2nc3c(s2)Cc2ccccc2-3)cc1C(F)(F)F [compound 484, N-(3-(trifluoromethyl)-4-(pentyloxy)phenyl)-8H-indeno[1,2-d]thiazol-2-amine]	< 1	–
CCCCCCCCOc1ccc(Nc2nc3c(s2)Cc2ccccc2-3)cc1 [compound 485, N-(4-(octyloxy)phenyl)-8H-indeno[1,2-d]thiazol-2-amine]	< 1	–
CCCCCOc1ccc(Nc2nc(-c3ccc(F)nc3)cs2)cc1C(F)(F)F [compound 486, N-(3-(trifluoromethyl)-4-(pentyloxy)phenyl)-4-(6-fluoropyridin-3-yl)thiazol-2-amine]	< 1	–
CCCCCCCOc1ccc(Nc2nc(-c3ccc(F)nc3)cs2)cc1 [compound 487, 4-(6-fluoropyridin-3-yl)-N-(4-(heptyloxy)phenyl)thiazol-2-amine]	< 1	–
CCCCCCCCOc1ccc(Nc2nc(-c3ccc(F)nc3)cs2)cc1 [compound 488]	< 1	–
CCCCCCCCN(C)c1ccc(Nc2nc(-c3ccc(F)nc3)cs2)cc1C(F)(F)F [compound 489, 2-(trifluoromethyl)-N^4-(4-(6-fluoropyridin-3-yl)thiazol-2-yl)-N^1-methyl-N^1-octylbenzene-1,4-diamine]	< 1	–
CCCCCCCCc1ccc(Nc2nc(-c3ccc(F)nc3)cs2)cc1 [compound 490, 4-(6-fluoropyridin-3-yl)-N-(4-octylphenyl)thiazol-2-amine]	< 1	–
CCCCCCCCOc1ccc(Nc2nc(Cc3ccccc3)cs2)cn1 [compound 491, N-(4-benzylthiazol-2-yl)-6-(octyloxy)pyridin-3-amine]	1 to 10	–
CCCCCCCCN(C)c1ccc(Nc2nc(Cc3ccccc3)cs2)cc1C(F)(F)F [compound 492, N^4-(4-benzylthiazol-2-yl)-2-(trifluoromethyl)-N^1-methyl-N^1-octylbenzene-1,4-diamine]	1 to 10	–
CCCCCCCCN(C)c1ccc(Nc2nc(Cc3ccccc3)cs2)cc1 [compound 493, N^1-(4-benzylthiazol-2-yl)-N^4-methyl-N^4-octylbenzene-1,4-diamine]	1 to 10	–
Fc1ccc(-c2csc(Nc3ccc(OCCCC4CCCC4)c(C(F)(F)F)c3)n2)cc1 [compound 494, N-(4-(3-cyclopentylpropoxy)-3-(trifluoromethyl)phenyl)-4-(4-fluorophenyl)thiazol-2-amine]	< 1	–
